Experimental data reported in patent publication US5206382A, “Indole derivatives, pharmaceutical compositions and methods of treating neurological and psychiatric disorders” (Fidia Georgetown Institute for the Neurosciences, priority 1991, dated 1993).
Read-outs that look alike come from different tables or passages of the source.

Columns and labels:
[1] = Sedation and ataxia in rats; settings: rat, in vivo, ratio of doses, read-out: anxiolytic doses lower than the doses that produce sedation and ataxia
Sprague Dawley rats = test: Elevated X maze test; format: in vivo, Sprague Dawley rat; settings: for Entries in open arms, test after 10 min injection / Entries in open arms, test after 20 min injection / Entries in open arms, test after 30 min injection: rats; for anxiolytic potency ranking / behavioral output of rats in the elevated X maze test: in words
Method: The elevated X maze is a behavioral test to detect anxiolytic drugs in rodents. […] The plus-maze consists of two open arms (43×8 cm) and two similarly sized enclosed arms with 9 cm high walls, arranged so that the arms of the same type are opposite each other. There is a central square of 8 cm. The apparatus is elevated to a height of 10 cm and each arm is divided into 3 squares.
Sprague Dawley rats weighing 200-250 gr. were housed in a room with a 12 hour light: 12 hour dark cycle and were allowed free access to food and water. After an i.v. injection of different indole derivatives, the rats were kept separated for 10, 20 or 30 minutes before testing. The testing period commenced when each animal was placed onto the central square of the maze. The number of entries in each arm was then recorded for 5 minutes. The maze was cleaned with water after each trial. The number of entries in the open arms provided a measure of anxiolytic activity of the drugs.

[2] = biological target: T1, BZD binding site located on the GABAA receptor (Rattus norvegicus, UniProt P18508+P62813); test: ^3 H-FLUMAZENIL binding, crude synaptic membranes; parameters: species or system Sprague Dawley rat; settings: 2 nM ^3 H-FLUMAZENIL, rat cerebellum membranes
T1 construct: The cerebella were removed and incubated for 20 minutes in ice cold double distilled water; from tissue; host or cells: crude synaptic membranes of Sprague Dawley rat cerebellum
Method: (§1) Crude Synaptic Membrane Preparation: Sprague Dawley rats (200-250 gr.) were killed by decapitation. The cerebella were removed and incubated for 20 minutes in ice cold double distilled water after homogenization with Polytron. The homogenate was centrifuged at 18,000 xg at 4° C. for 10 minutes. The pellet was suspended in ice-cold buffer 50 mM Na/KPO4(pH 7.4) and centrifuged at 18,000 xg at 4° C. for 10 minutes. After two other centrifugations, the membranes were suspended in 5 ml of buffer and the proteins were measured.
(§2) The membranes were diluted with 50 mM Na/KPO4 buffer (pH 7.4) to a concentration of 150 μg of protein/ml, and 150 μl aliquots of the suspension were incubated with 50 μl of the different ligands to be tested: ^3 H-ZOLPIDEM(2 nM), ^3 H-FLUMAZENIL (2 nM), ^3 H-GABA(10 nM), ^3 H-MK 801(5 nM), ^3 H-KETANSERIN(1 nM), ^3 H-GLYCINE(20 nM), ^3 H-SPIPERONE(1 nM), ^3 H-AMPA(10 nM), ^3 H-3-PPP(1 nM), and ^3 H-NALOXONE(1 nM). Non-specific binding was assessed by displacing with 10 to 1000/μM of cold ligand.

[3] = tested on: mitochondrial pregnenolone formation, C6-2B glioma cells; test: Pregnenolone formation in glial mitochondria (C6-2B glioma cells); format: biochemical; settings: for Effective concentration, maximal / EC50: C6 glial cell mitochondria, 15 minutes at 37° C.; for EC50: read-out: Effective concentration, 50%; for Stimulation %: pregnenolone formation, increase over the control
Method: The mixture was preincubated for 5 minutes at 37° C. The incubation mixture was extracted with 5 ml chloroform/methanol (2:1, vol/vol), and the organic phase was evaporated to dryness. Pregnenolone was measured by a specific radioimmunoassay using an antibody obtained from Radioassay Systems Laboratories, Carson, Calif.

[4] = biological target: ^3 H-GABA binding (crude synaptic membrane); test: ^3 H-GABA binding, crude synaptic membranes; parameters: species or system Sprague Dawley rat; settings: 10 nM ^3 H-GABA, rat cerebellum membranes
Method: as §1
as §2, with “ligand. The different indole derivatives were added in a volume of 50 μl in a concentration varying from 10^-9 to 10^-3 M. The results are reported in Table I hereinbelow.” for “ligand.”

[5] = biological target: T2, MBR (mitochondrial benzodiazepine recognition site) (Rattus norvegicus, UniProt P16257); test: Displacement of ^3 H-PK11195 from mitochondrial BZD recognition site (MBR); format: binding, Sprague Dawley rat; settings: for IC50: displacement of 1 nM ^3 H-PK11195, rat mitochondria, range in parentheses; for ^3 H-PK11195 / ^3 H-RO5-4864: ratio of the two IC50 values
T2 construct: Brain and adrenal glands were removed and homogenized with Polytron; from tissue; host or cells: mitochondrial fraction of Sprague Dawley rat brain and adrenal glands
Method: (§3) Mitochondrial Preparation: Sprague Dawley rats (200-250 gr.) were killed by decapitation. Brain and adrenal glands were removed and homogenized with Polytron for 15 minutes in ice cold buffer (10 mM Na/KPO4, 0.32M sucrose, pH 7.4). The homogenate was centrifuged for 15 minutes at 6,500 xg at 4° C. The resulting supernatant was centrifuged for 15 minutes at […] at 4° C. The pellet was suspended in buffer (20 times) by gentle homogenization and centrifuged at 10,000 xg at 4° C. for 15 minutes. The washed mitochondrial pellet was stored at -70° C.
(§4) For the binding assay the mitochondrial fraction was diluted with 50 mM Na/KPO4 buffer (pH 7.4) to give a final protein concentration of […] in 100 μl buffer. This suspension was incubated with 1 nM of ^3 H PK-11195 or ^3 H RO 5-4864 (50 μl) with or without 10/μM unlabeled PK-11195 or RO 5-4864 to assess the extent of total and non-specific binding. Different amounts of indole derivatives were added to the incubation medium in a volume of 50 μl. After incubation for 60 minutes at 4° C., samples were filtered and the radioactivity was measured in a scintillation counter.

[6] = biological target: T3, ^3 H-ZOLPIDEM binding (crude synaptic membrane) (Rattus norvegicus, UniProt P18508+P62813); test: ^3 H-ZOLPIDEM binding, crude synaptic membranes; parameters: species or system Sprague Dawley rat; settings: 2 nM ^3 H-ZOLPIDEM, rat cerebellum membranes
T3 construct: from tissue; host or cells: crude synaptic membranes of Sprague Dawley rat cerebellum
Method: as §1
as §2, with “ligand. The different indole derivatives were added in a volume of 50 μl in a concentration varying from 10^-9 to 10^-3 M. The results are reported in Table I hereinbelow.” for “ligand.”

[7] = biological target: T2, MBR (mitochondrial benzodiazepine recognition site); test: Displacement of ^3 H-RO5-4864 from mitochondrial BZD recognition site (MBR); format: binding, Sprague Dawley rat; settings: displacement of 1 nM ^3 H-RO5-4864, rat mitochondria; range in parentheses
Method: as §3, §4

GABAA receptor = settings: in words; cited from earlier work
rats = settings: cited from earlier work
MBR [8] = settings: in words; cited from earlier work
MBR [9] = settings: in words; cited from earlier work; remark: listed apart in the source
GABAA receptors = settings: in words; cited from earlier work

T1 sequence (P62813 28-455): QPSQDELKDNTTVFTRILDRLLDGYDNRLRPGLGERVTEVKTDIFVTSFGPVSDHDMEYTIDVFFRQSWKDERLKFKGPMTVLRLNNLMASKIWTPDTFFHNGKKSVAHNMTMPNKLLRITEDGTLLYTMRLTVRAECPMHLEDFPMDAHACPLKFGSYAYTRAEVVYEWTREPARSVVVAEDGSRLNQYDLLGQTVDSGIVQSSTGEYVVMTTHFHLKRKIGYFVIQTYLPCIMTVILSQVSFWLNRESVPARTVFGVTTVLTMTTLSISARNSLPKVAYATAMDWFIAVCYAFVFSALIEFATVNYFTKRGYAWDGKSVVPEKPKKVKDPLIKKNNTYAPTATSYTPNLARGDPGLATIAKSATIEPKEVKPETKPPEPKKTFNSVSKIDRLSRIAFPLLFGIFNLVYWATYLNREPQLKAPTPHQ
T1 sequence (P18508 39-466): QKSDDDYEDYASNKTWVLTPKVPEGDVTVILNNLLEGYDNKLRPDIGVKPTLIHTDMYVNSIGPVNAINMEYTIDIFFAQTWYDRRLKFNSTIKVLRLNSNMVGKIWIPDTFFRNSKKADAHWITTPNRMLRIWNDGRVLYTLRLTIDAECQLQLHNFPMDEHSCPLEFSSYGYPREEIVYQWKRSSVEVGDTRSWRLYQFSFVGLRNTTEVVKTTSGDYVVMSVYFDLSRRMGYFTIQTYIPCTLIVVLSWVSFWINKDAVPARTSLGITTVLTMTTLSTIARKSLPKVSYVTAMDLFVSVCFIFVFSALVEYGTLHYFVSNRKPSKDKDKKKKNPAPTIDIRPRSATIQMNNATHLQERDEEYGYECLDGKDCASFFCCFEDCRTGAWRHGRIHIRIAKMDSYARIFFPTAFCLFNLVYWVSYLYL
T3 sequence (P62813 28-455): as the sequence (P62813 28-455) above
T3 sequence (P18508 39-466): as the sequence (P18508 39-466) above

CCCCCCN(CCCCCC)C(=O)Cc1c(-c2ccc(Cl)cc2)[nH]c2ccc(Cl)cc12 [compound 43]
selectivity ratio [1]: 100 to 500 | Entries in open arms, test after 10 min injection (Sprague Dawley rats; 0.5 mg/kg i.v.): 4 | Entries in open arms, test after 20 min injection (Sprague Dawley rats; 0.5 mg/kg i.v.): 2 | Entries in open arms, test after 30 min injection (Sprague Dawley rats; 0.5 mg/kg i.v.): 1 | anxiolytic potency ranking (Sprague Dawley rats): most potent anxiolytic drugs | behavioral output of rats in the elevated X maze test (Sprague Dawley rats): increase the behavioral output

CCCN(CCC)C(=O)Cc1c(-c2ccccc2)[nH]c2ccccc12 [Compound No. 2]
IC50 [2]: > 1000 nM | Effective concentration, maximal [3]: 10^-9 M | EC50 [3]: 0.33 nM | Stimulation % [3]: 200% | IC50 [4]: > 1000 nM | IC50 [5]: 32.5 nM | ^3 H-PK11195 / ^3 H-RO5-4864 [5]: 1.4 | Entries in open arms, test after 10 min injection (Sprague Dawley rats; 20 mg/kg i.v.): 0 | Entries in open arms, test after 20 min injection (Sprague Dawley rats; 20 mg/kg i.v.): 0 | Entries in open arms, test after 30 min injection (Sprague Dawley rats; 20 mg/kg i.v.): 0 | Entries in open arms, test after 10 min injection (Sprague Dawley rats; 200 mg/kg i.v.): 4 | Entries in open arms, test after 20 min injection (Sprague Dawley rats; 200 mg/kg i.v.): 0 | Entries in open arms, test after 30 min injection (Sprague Dawley rats; 200 mg/kg i.v.): 0 | behavioral output of rats in the elevated X maze test (Sprague Dawley rats): increase the behavioral output | IC50 [6]: > 1000 nM | IC50 [7]: 22.5 nM

CCCN(CCC)C(=O)Cc1c(-c2ccc(Cl)cc2)nc2ccc(Cl)cn12 [Alpidem]
binding to the GABAA receptor / BZD recognition sites on GABAA receptors (GABAA receptor): high affinity | conflict response (rats; dose-related, reduced by both PK-11195 and Flumazenil): anticonflict (anxiolytic) action | affinity for the MBR (MBR [8]): high affinity | cholesterol influx into mitochondria and formation of pregnenolone (MBR [9]): facilitates cholesterol influx into mitochondria and the formation of pregnenolone

C[C@]12CC[C@@H](O)C[C@@H]1CC[C@@H]1[C@@H]2CC[C@]2(C)[C@@H](C(=O)CO)CC[C@@H]12 [3α,21-dihydroxy-5α-pregnan-20-one(THDOC), 3α,21-dihydroxy-5α-pregnan-20-one]
modulation of GABA action (GABAA receptors): positively modulate

CN1C(=O)CN=C(c2ccc(Cl)cc2)c2cc(Cl)ccc21 [4-Cl-Diazepam]
binding to the GABAA receptor / BZD recognition sites on GABAA receptors (GABAA receptor): binds to the GABAA receptor | conflict response (rats; rats, small doses, partially resistant to Flumazenil, sensitive to PK-11195): proconflict response | affinity for the MBR (MBR [8]): high affinity | cholesterol influx into mitochondria and formation of pregnenolone (MBR [9]): facilitates cholesterol influx into mitochondria and the formation of pregnenolone

CC(=O)[C@H]1CC[C@H]2[C@@H]3CC=C4C[C@@H](OS(=O)(=O)O)CC[C@]4(C)[C@H]3CC[C@]12C [pregnenolone sulphate]
modulation of GABA action (GABAA receptors): negatively modulate

CCCCCCN(CCCCCC)C(=O)Cc1c(-c2ccc(F)cc2)[nH]c2ccccc12 [compound 27]
IC50 [2]: > 1000 nM | Effective concentration, maximal [3]: 10^-7 M | EC50 [3]: 3.3 nM | Stimulation % [3]: 300% | IC50 [4]: > 1000 nM | selectivity ratio [1]: 100 to 500 | IC50 [5]: 18 nM | ^3 H-PK11195 / ^3 H-RO5-4864 [5]: 0.9 | Entries in open arms, test after 10 min injection (Sprague Dawley rats; 0.5 mg/kg i.v.): 5 | Entries in open arms, test after 20 min injection (Sprague Dawley rats; 0.5 mg/kg i.v.): 2 | Entries in open arms, test after 30 min injection (Sprague Dawley rats; 0.5 mg/kg i.v.): 1 | anxiolytic potency ranking (Sprague Dawley rats): most potent anxiolytic drugs | behavioral output of rats in the elevated X maze test (Sprague Dawley rats): increase the behavioral output | IC50 [7]: 20 nM

CC(=O)[C@H]1CC[C@H]2[C@@H]3CC[C@H]4C[C@H](O)CC[C@]4(C)[C@H]3CC[C@]12C [3-α-hydroxy-5α-pregnan-20-one(3-αOH-DHP), 3-α-hydroxy-5α-pregnan-20-one]
modulation of GABA action (GABAA receptors): positively modulate
